The source made the active and inactive calls. The calls are words filed in the database; no cut-off is given here.
What was measured:
[1] = target: Histone-lysine N-methyltransferase EZH2 (Homo sapiens) (UniProt Q15910); test: Inhibition of human EZH2 using core histone and SAM as substrate at 10 uM by radiometric Hotspot assay
[2] = target: T1, von Hippel-Lindau disease tumor suppressor/Histone-lysine N-methyltransferase, H3 lysine-79 specific (Homo sapiens, UniProt Q8TEK3+P40337); test: PROTAC activity at VHL/DOT1L in mixed-lineage leukemia rearranged (MLL-r) human THP-1 cells assessed as induction of DOTIL degradation by measuring fold change in H3K79Me2 level at 3 uM incubated for 24 hrs by western blot analysis relative to control; type: cell-based
[3] = target: T1, von Hippel-Lindau disease tumor suppressor/Histone-lysine N-methyltransferase, H3 lysine-79 specific; test: PROTAC activity at VHL/DOT1L in mixed-lineage leukemia rearranged (MLL-r) human THP-1 cells assessed as induction of DOTIL degradation by measuring fold change in DOT1L protein level at 3 uM incubated for 1 hr by western blot analysis relative to control; type: cell-based
[4] = target: T1, von Hippel-Lindau disease tumor suppressor/Histone-lysine N-methyltransferase, H3 lysine-79 specific; test: PROTAC activity at VHL/DOT1L in mixed-lineage leukemia rearranged (MLL-r) human MV4-11 cells assessed as induction of DOTIL degradation by measuring fold change in H3K79Me2 level at 3 uM incubated for 48 hrs by western blot analysis relative to control; type: cell-based
[5] = target: T1, von Hippel-Lindau disease tumor suppressor/Histone-lysine N-methyltransferase, H3 lysine-79 specific; test: PROTAC activity at VHL/DOT1L in mixed-lineage leukemia rearranged (MLL-r) human MV4-11 cells assessed as induction of DOTIL degradation by measuring fold change in DOT1L protein level at 3 uM incubated for 1 hr by western blot analysis relative to control; type: cell-based
[6] = target: T1, von Hippel-Lindau disease tumor suppressor/Histone-lysine N-methyltransferase, H3 lysine-79 specific; test: PROTAC activity at VHL/DOT1L in mixed-lineage leukemia rearranged (MLL-r) human THP-1 cells assessed as induction of DOTIL degradation by measuring fold change in DOT1L protein level at 3 uM incubated for 2 hrs by western blot analysis relative to control; type: cell-based
[7] = target: DNA (cytosine-5)-methyltransferase 3B (Homo sapiens) (UniProt Q9UBC3); test: Inhibition of human full length DNMT3b using lambda DNA and SAM as substrate at 10 uM by radiometric Hotspot assay
[8] = target: Protein arginine N-methyltransferase 1 (Homo sapiens) (UniProt Q99873); test: Inhibition of human PRMT1 using histone H4 and SAM as substrate at 10 uM by radiometric Hotspot assay
[9] = test system: MOLM-13; test: Antiproliferative activity against mixed-lineage leukemia rearranged (MLL-r) human MOLM-13 cells assessed as inhibition of cell growth incubated for 7 days by CCK-8 assay; type: functional, cell-based; settings: time 7.0 day
[10] = target: T1, von Hippel-Lindau disease tumor suppressor/Histone-lysine N-methyltransferase, H3 lysine-79 specific; test: PROTAC activity at VHL/DOT1L in mixed-lineage leukemia rearranged (MLL-r) human MV4-11 cells assessed as induction of DOTIL degradation by measuring fold change in DOT1L protein level at 3 uM incubated for 24 hrs by western blot analysis relative to control; type: cell-based
[11] = test system: PNT2; test: Cytotoxicity against human PNT2 cells assessed as inhibition of cell growth incubated for 7 days by CCK-8 assay; type: toxicity, cell-based; settings: pnt2, 168 h, time 7 day
[12] = target: Histone-lysine N-methyltransferase, H3 lysine-79 specific (Homo sapiens) (UniProt Q8TEK3); test: Inhibition of human DOT1L using oligonucleosomes and SAM as substrate at 4.6 nM by radiometric Hotspot assay
[13] = target: DNA (cytosine-5)-methyltransferase 3A (Homo sapiens) (UniProt Q9Y6K1); test: Inhibition of human DNMT3a using lambda DNA and SAM as substrate at 10 uM by radiometric Hotspot assay
[14] = target: T1, von Hippel-Lindau disease tumor suppressor/Histone-lysine N-methyltransferase, H3 lysine-79 specific; test: PROTAC activity against VHL/DOT1L in mixed-lineage leukemia rearranged (MLL-r) human THP-1 cells assessed as induction of DOT1L degradation at 3 uM preincubated with NAE inhibitor, MLN4924 for 1 hr followed by incubation with compound for 8 hrs by western blot analysis; type: cell-based
[15] = test system: MV4-11; test: Effect on DOTIL mRNA expression in mixed-lineage leukemia rearranged (MLL-r) human MV4-11 cells at 3 uM incubated for 24 hrs by RT-qPCR analysis; type: functional, cell-based
[16] = target: T1, von Hippel-Lindau disease tumor suppressor/Histone-lysine N-methyltransferase, H3 lysine-79 specific; test: PROTAC activity at VHL/DOT1L in mixed-lineage leukemia rearranged (MLL-r) human MV4-11 cells assessed as induction of DOTIL degradation by measuring fold change in H3K79Me2 level at 3 uM incubated for 2 hrs by western blot analysis relative to control; type: cell-based
[17] = target: T1, von Hippel-Lindau disease tumor suppressor/Histone-lysine N-methyltransferase, H3 lysine-79 specific; test: PROTAC activity at VHL/DOTIL in mixed-lineage leukemia rearranged (MLL-r) human THP-1 cells assessed as induction of DOT1L degradation by measuring fold change in DOTIL protein level at 3 uM incubated for 24 hrs by western blot analysis relative to control; type: cell-based
[18] = target: T1, von Hippel-Lindau disease tumor suppressor/Histone-lysine N-methyltransferase, H3 lysine-79 specific; test: PROTAC activity at VHL/DOT1L in mixed-lineage leukemia rearranged (MLL-r) human THP-1 cells assessed as induction of DOTIL degradation by measuring fold change in H3K79Me2 level at 3 uM incubated for 8 hrs by western blot analysis relative to control; type: cell-based
[19] = target: DNA (cytosine-5)-methyltransferase 1 (Homo sapiens) (UniProt P26358); test: Inhibition of human DNMT1 using poly(dI-dC) and SAM as substrate at 10 uM by radiometric Hotspot assay
[20] = target: T1, von Hippel-Lindau disease tumor suppressor/Histone-lysine N-methyltransferase, H3 lysine-79 specific; test: PROTAC activity at VHL/DOTIL in mixed-lineage leukemia rearranged (MLL-r) human THP-1 cells assessed as induction of DOT1L degradation by measuring fold change in DOTIL protein level at 0.3 uM incubated for 24 hrs by western blot analysis relative to control; type: cell-based
[21] = target: T1, von Hippel-Lindau disease tumor suppressor/Histone-lysine N-methyltransferase, H3 lysine-79 specific; test: PROTAC activity at VHL/DOT1L in mixed-lineage leukemia rearranged (MLL-r) human THP-1 cells assessed as induction of DOTIL degradation by measuring fold change in DOT1L protein level at 3 uM incubated for 4 hrs by western blot analysis relative to control; type: cell-based
[22] = target: PRMT5/MEP50 complex (Homo sapiens) (UniProt O14744+Q9BQA1); test: Inhibition of human PRMT5/MEP50 complex using histone H2A and SAM as substrate at 10 uM by radiometric Hotspot assay; type: protein-complex assay
[23] = target: T1, von Hippel-Lindau disease tumor suppressor/Histone-lysine N-methyltransferase, H3 lysine-79 specific; test: PROTAC activity at VHL/DOT1L in mixed-lineage leukemia rearranged (MLL-r) human THP-1 cells assessed as induction of DOTIL degradation by measuring fold change in DOT1L protein level at 3 uM incubated for 8 hrs by western blot analysis relative to control; type: cell-based
[24] = target: T1, von Hippel-Lindau disease tumor suppressor/Histone-lysine N-methyltransferase, H3 lysine-79 specific; test: PROTAC activity at VHL/DOT1L in mixed-lineage leukemia rearranged (MLL-r) human MV4-11 cells assessed as maximal induction of DOT1L degradation incubated for 24 hrs by western blot analysis relative to control; type: cell-based

T1 sequence (P40337 whole entry, looked up): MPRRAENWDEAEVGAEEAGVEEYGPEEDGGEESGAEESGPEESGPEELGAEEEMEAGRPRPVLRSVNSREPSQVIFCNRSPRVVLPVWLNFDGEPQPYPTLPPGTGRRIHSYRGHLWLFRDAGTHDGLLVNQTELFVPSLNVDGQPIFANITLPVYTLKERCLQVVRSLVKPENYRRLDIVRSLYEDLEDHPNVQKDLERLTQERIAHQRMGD
T1 sequence (Q8TEK3 whole entry, looked up): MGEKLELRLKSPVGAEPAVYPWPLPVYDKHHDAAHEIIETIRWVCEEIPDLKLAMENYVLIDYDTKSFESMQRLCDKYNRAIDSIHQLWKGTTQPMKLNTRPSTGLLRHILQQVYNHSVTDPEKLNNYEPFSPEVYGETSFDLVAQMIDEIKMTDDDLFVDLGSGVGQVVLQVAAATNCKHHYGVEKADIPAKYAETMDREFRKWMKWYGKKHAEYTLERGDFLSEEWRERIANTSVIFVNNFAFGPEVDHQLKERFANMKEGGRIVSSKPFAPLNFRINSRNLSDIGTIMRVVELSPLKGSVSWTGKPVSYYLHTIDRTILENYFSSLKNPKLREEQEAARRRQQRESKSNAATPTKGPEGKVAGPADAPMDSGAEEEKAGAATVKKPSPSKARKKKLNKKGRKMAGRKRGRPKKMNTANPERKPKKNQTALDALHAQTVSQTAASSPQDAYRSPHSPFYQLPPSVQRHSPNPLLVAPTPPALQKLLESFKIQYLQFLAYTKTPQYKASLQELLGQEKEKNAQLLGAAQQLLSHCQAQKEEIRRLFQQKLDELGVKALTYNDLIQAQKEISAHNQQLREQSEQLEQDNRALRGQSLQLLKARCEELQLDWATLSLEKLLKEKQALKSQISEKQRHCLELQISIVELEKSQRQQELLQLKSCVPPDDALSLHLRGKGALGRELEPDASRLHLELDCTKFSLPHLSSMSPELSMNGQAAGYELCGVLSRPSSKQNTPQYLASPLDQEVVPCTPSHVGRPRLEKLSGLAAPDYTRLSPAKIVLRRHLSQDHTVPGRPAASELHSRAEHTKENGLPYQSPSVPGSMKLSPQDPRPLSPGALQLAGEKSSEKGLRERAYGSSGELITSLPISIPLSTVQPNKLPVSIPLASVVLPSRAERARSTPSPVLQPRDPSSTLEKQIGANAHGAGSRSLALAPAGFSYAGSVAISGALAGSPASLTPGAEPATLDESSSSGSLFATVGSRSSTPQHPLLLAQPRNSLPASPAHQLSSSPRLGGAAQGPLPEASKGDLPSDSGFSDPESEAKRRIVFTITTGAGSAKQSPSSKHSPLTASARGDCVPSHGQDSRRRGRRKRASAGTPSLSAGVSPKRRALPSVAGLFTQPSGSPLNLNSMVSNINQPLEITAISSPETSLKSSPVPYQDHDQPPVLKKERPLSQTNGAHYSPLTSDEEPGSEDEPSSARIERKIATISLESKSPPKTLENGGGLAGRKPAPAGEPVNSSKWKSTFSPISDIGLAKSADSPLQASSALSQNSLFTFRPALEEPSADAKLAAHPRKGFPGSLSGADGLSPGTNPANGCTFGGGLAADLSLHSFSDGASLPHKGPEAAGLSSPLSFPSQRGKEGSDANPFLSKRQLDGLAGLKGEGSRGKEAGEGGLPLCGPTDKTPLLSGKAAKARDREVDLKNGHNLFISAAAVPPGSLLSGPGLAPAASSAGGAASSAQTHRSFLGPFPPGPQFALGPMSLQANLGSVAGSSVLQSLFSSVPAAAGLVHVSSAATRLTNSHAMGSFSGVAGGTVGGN
Chain of Histone-lysine N-methyltransferase, H3 lysine-79 specific (Homo sapiens) (Q8TEK3 whole entry, looked up): as above
Chain of Histone-lysine N-methyltransferase EZH2 (Homo sapiens) (Q15910 whole entry, looked up): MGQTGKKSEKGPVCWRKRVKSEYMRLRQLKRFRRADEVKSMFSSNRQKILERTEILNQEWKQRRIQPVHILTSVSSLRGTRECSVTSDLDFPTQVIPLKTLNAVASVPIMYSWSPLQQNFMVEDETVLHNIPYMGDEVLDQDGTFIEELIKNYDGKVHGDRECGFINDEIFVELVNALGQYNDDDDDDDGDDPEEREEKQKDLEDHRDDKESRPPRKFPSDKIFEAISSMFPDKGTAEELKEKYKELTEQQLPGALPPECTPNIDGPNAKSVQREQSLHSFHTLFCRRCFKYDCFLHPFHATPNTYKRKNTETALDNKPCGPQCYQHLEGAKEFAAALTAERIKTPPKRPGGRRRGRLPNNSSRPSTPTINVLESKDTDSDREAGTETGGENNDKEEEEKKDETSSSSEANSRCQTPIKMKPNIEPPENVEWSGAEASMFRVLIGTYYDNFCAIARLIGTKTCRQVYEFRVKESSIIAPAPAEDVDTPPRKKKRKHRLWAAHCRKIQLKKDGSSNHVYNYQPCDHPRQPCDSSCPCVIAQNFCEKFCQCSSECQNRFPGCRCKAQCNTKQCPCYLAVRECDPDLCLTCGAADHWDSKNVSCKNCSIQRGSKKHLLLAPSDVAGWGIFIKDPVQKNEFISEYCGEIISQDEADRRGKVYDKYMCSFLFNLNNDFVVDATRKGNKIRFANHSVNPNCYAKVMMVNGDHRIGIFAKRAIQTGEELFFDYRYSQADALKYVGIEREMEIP
Chain of DNA (cytosine-5)-methyltransferase 1 (Homo sapiens) (P26358 whole entry): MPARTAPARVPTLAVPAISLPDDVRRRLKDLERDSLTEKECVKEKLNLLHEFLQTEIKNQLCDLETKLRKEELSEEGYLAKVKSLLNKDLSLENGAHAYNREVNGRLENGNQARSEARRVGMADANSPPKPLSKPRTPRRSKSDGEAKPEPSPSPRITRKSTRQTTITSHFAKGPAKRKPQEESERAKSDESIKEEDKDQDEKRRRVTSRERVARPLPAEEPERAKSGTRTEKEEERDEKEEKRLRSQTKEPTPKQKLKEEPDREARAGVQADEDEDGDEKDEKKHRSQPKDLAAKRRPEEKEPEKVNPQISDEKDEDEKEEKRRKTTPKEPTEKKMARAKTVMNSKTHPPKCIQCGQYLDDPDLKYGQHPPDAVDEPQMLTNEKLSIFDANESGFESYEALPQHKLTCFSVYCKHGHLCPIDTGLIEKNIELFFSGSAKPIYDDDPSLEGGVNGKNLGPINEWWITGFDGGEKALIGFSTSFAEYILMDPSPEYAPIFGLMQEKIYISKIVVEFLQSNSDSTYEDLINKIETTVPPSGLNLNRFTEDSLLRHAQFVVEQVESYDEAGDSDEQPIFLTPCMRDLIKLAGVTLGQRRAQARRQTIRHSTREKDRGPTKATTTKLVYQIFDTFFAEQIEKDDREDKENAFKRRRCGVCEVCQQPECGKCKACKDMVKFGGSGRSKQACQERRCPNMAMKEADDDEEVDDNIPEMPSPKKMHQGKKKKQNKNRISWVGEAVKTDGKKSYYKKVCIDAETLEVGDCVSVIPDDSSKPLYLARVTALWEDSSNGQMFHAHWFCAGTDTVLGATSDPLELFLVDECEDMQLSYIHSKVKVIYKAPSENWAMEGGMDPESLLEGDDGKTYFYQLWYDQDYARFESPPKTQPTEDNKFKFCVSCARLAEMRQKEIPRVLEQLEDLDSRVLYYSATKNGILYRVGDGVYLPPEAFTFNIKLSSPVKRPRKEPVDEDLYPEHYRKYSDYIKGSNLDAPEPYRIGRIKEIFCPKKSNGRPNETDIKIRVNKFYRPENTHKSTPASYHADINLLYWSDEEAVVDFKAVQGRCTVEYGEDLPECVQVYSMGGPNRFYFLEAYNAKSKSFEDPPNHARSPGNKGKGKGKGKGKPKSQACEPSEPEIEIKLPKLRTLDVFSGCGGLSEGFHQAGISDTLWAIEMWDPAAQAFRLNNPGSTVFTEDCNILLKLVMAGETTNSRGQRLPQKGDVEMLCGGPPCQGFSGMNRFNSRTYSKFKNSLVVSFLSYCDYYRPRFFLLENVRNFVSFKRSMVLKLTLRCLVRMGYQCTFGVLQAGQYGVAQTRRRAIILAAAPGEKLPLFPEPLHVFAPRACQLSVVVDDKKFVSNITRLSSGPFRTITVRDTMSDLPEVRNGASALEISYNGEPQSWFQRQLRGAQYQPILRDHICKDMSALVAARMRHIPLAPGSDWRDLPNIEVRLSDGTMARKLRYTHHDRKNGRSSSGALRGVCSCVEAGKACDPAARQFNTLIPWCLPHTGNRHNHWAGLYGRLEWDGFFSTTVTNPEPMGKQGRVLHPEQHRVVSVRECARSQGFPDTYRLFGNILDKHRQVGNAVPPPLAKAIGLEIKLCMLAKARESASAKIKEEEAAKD
Chain of DNA (cytosine-5)-methyltransferase 3A (Homo sapiens) (Q9Y6K1 whole entry, looked up): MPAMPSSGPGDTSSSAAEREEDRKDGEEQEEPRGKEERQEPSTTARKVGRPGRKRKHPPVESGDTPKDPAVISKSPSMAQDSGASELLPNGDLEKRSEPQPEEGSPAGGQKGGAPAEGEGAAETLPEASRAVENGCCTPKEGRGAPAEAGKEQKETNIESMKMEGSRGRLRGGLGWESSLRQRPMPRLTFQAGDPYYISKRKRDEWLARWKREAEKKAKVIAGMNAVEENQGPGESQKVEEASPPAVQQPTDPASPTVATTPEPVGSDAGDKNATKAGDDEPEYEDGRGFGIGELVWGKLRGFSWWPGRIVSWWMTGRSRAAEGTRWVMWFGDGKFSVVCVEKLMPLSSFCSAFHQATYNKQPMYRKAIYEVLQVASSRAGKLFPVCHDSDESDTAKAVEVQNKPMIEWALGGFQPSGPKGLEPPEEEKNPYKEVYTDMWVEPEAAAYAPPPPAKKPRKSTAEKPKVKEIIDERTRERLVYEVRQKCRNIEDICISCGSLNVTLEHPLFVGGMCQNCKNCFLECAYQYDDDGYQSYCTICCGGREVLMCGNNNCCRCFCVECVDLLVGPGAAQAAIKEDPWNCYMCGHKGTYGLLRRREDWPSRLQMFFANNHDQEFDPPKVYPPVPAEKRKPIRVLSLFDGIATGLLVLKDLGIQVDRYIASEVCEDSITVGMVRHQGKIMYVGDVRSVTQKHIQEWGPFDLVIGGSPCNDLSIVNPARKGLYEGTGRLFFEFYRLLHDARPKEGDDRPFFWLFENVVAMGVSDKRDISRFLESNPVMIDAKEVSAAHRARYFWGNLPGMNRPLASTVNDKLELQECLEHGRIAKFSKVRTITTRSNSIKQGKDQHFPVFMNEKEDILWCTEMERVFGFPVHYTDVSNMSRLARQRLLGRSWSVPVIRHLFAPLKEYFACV

## Cc1ncsc1-c1ccc([C@H](CC(=O)NCCCCCCNC(=O)COc2nc(N)nc(Nc3cc(S(N)(=O)=O)ccc3N[C@@H](c3cccc4c3OC(F)(F)O4)c3ncccc3Cl)n2)NC(=O)[C@@H]2C[C@@H](O)CN2C(=O)[C@@H](NC(=O)C2(F)CC2)C(C)(C)C)cc1
[1]
  inhibition: inactive
[2]
  fold change (FC): 0.29
[3]
  fold change (FC): 0.33
[4]
  fold change (FC): 0.12
[5]
  fold change (FC): 1.26
[6]
  fold change (FC): 0.36
[7]
  inhibition: inactive
[8]
  inhibition: inactive
[9]
  Activity: Active; Reduced Potency In Molm-13 Cells Relative To Mv4-11 Cells Observed
[10]
  fold change (FC): 0.07
[11]
  Activity: Non-toxic
[12]
  inhibition: > 95%
[13]
  inhibition: inactive
[14]
  Activity: inactive
[15]
  Activity: inactive
[16]
  fold change (FC): 0.41
[17]
  fold change (FC): 0.08
[18]
  fold change (FC): 1.13
[19]
  inhibition: inactive
[20]
  fold change (FC): 0.08
[21]
  fold change (FC): 0.4
[22]
  inhibition: inactive
[23]
  fold change (FC): 0.29
[24]
  Activity: 93%

— ChEMBL document CHEMBL6182889, “Discovery of the first-in-class DOT1L PROTAC degrader” (Eur J Med Chem, 2025)
